Common to all, as to type: functional
The test system of one assay is HeLa. The assay is described as follows: Cytotoxicity against human HeLa cells after 48 hrs by MTT assay. The arrangement: concentration or dose not given beside the values. (In general: Tetrazolium dyes change colour on reduction, which living cells bring about.)
For another assay, the system named is SK-N-SH. The assay is described as follows: Cytotoxicity against human SK-N-SH cells after 48 hrs by MTT assay. The arrangement: concentration or dose not given beside the values.
The subject of assay [1] is Mycobacterium tuberculosis. Nature of the assay: Antituberculosis activity against Mycobacterium tuberculosis H37Rv by agar dilution method.
In the next assay the test system is A549. The assay is described as follows: Cytotoxicity against human A549 cells after 48 hrs by MTT assay. On the set-up: concentration or dose not given beside the values.

Converted amounts (≈) assume the structure as drawn. The source made the active and inactive calls. The rule behind the calls is not given here.

What is called MIC is the lowest concentration found to suppress growth. For the compound `COCCOC(=O)C1=C(C)NC(=S)NC1c1coc2ccc(C)cc2c1=O` (stereo not given), the Activity with HeLa is recorded as 17.4%; in the assay on SK-N-SH it was 22.8%; in the assay on A549, 21.2%. For the same compound, inhibition of growth in assay [1] (MIC) required 32.2 µM (≈ 12.5 µg/mL).
As for `CCOC(=O)C1=C(c2ccccc2)NC(=O)NC1c1coc2c(ccc3occc32)c1=O` (stereo not given), the Activity in the assay with HeLa was 43.3%; in the assay on SK-N-SH, 39.4%; in the assay with A549 it was 33.3%. Further, 14.5 µM (≈ 6.25 µg/mL) was the least that counted as inhibitory in assay [1] (MIC).
As to `CCOC(=O)C1=C(c2ccccc2)NC(=S)NC1c1coc2ccccc2c1=O` (stereo not given), the results for the Activity in the assay with HeLa, in the assay on SK-N-SH and in the assay on A549 were 33%, 1.9% and 9.4%, respectively. In assay [1], this compound yielded an MIC of 61.6 µM (≈ 25 µg/mL).
The corresponding values for `CCOC(=O)C1=C(c2ccccc2)NC(=O)NC1c1coc2ccc(C)cc2c1=O` (stereo not given) are 29.8%, “inactive”, 18.6% and 30.9 µM (≈ 12.5 µg/mL).
Turning to `CCOC(=O)C1=C(C)NC(=O)NC1c1coc2ccc([N+](=O)[O-])cc2c1=O` (stereo not given), the Activity in the assay with HeLa amounted to 54.4%; in the assay with SK-N-SH, 28.7%. The MIC in assay [1] was 4.18 µM (≈ 1.56 µg/mL). Further, the result with A549 was inactive.
Regarding `CCOC(=O)C1=C(CCl)NC(=O)NC1c1coc2ccccc2c1=O` (stereo not given), the Activity is 23.3% in the assay with HeLa, 18.6% in the assay with SK-N-SH and 30.7% in the assay on A549. Moreover, the minimum inhibitory concentration (MIC) in assay [1] was found to be 34.5 µM (≈ 12.5 µg/mL).
The matching figures for `COCCOC(=O)C1=C(C)NC(=O)NC1c1coc2ccc(-c3ccccc3)cc2c1=O` (stereo not given): 33.5%, 13.4%, 34.4% and 57.6 µM (≈ 25 µg/mL).
With `CCOC(=O)C1=C(CCl)NC(=O)NC1c1coc2ccc(C)cc2c1=O` (stereo not given), the Activity in the assay on HeLa is reported as 81.4%; in the assay on SK-N-SH, 55.3%; in the assay on A549, 46.2%. Moreover, in assay [1], 16.6 µM (≈ 6.26 µg/mL) was the least that counted as inhibitory (MIC).
On to `CCOC(=O)C1=C(C)NC(=S)NC1c1coc2ccc(Br)cc2c1=O` (stereo not given), for which the Activity with HeLa was determined as 41.1%; in the assay with SK-N-SH it was 20%; in the assay with A549, 43.5%. In addition, 29.7 µM (≈ 12.6 µg/mL) was the least that counted as inhibitory in assay [1] (MIC).
The corresponding values for `COCCOC(=O)C1=C(C)NC(=O)NC1c1coc2ccc(Br)cc2c1=O` (stereo not given) are 40.2%, 38.4%, 29.9% and 28.7 µM (≈ 12.5 µg/mL).
The corresponding values for `CCOC(=O)C1=C(C(F)(F)F)NC(=O)NC1c1coc2c(ccc3occc32)c1=O` (stereo not given) are 32.8%, 34.3%, 27.5% and 3.67 µM (≈ 1.55 µg/mL).
The corresponding values for `CCOC(=O)C1=C(C)NC(=O)NC1c1coc2cc3occc3cc2c1=O` (stereo not given) are 51.5%, 37.5%, 29.6% and 34 µM (≈ 12.5 µg/mL).
`CCOC(=O)C1=C(c2ccccc2)NC(=O)NC1c1coc2ccc(-c3ccccc3)cc2c1=O` (stereo not given): the result with HeLa, in the assay with SK-N-SH and in the assay on A549 was inactive. The same compound displayed a minimum inhibitory concentration (MIC) in assay [1] of 25.9 µM (≈ 12.1 µg/mL).
On to `COCCOC(=O)C1=C(C)NC(=S)NC1c1coc2ccccc2c1=O` (stereo not given), for which the outcome in the assay on HeLa, in the assay on SK-N-SH and with A549 was inactive. The compound further showed a minimum inhibitory concentration (MIC) in assay [1] of 66.8 µM (≈ 25 µg/mL).
For `CCOC(=O)C1=C(C)NC(=S)NC1c1coc2ccc(C)cc2c1=O` (stereo not given), the Activity in the assay on HeLa is reported as 43.2%; in the assay with SK-N-SH it was 7%; in the assay on A549, 18.3%. In assay [1], this compound showed an MIC of 34.9 µM (≈ 12.5 µg/mL).
The corresponding values for `COCCOC(=O)C1=C(C)NC(=O)NC1c1coc2c(ccc3occc32)c1=O` (stereo not given) are 61.2%, 8.4%, 4.5% and 31.4 µM (≈ 12.5 µg/mL).
As for `COCCOC(=O)C1=C(C)NC(=O)NC1c1coc2ccc(C)cc2c1=O` (stereo not given), the values for the Activity with HeLa, in the assay with SK-N-SH and in the assay on A549 were 40.2%, 35.6% and 28.4%, respectively. For the same compound, in assay [1], the MIC was found to be 34.1 µM (≈ 12.7 µg/mL).
The matching figures for `CCOC(=O)C1=C(c2ccccc2)NC(=O)NC1c1coc2ccccc2c1=O` (stereo not given): 5.3%, 15%, 15.4% and 64.1 µM (≈ 25 µg/mL).
As to `O=C(O)c1cn(C2CC2)c2cc(N3CCNCC3)c(F)cc2c1=O` [CIPROFLOXACIN], in assay [1], the minimum inhibitory concentration (MIC) came to 9.44 µM (≈ 3.13 µg/mL).
As to `COCCOC(=O)C1=C(C)NC(=O)NC1c1coc2ccccc2c1=O` (stereo not given), the figures for the Activity in the assay with HeLa, with SK-N-SH and in the assay on A549 were 38.5%, 23.9% and 23.5%, respectively. Moreover, the lowest concentration to inhibit growth in assay [1] (MIC) was 69.8 µM (≈ 25 µg/mL).
As for `CCOC(=O)C1=C(C)NC(=O)NC1c1coc2ccc(-c3ccco3)cc2c1=O` (stereo not given), the values for the Activity in the assay with HeLa, in the assay with SK-N-SH and with A549 were 35.4%, 46.4% and 34.5%, respectively. The same compound showed an MIC in assay [1] of 15.9 µM (≈ 6.25 µg/mL).
For `CCOC(=O)C1=C(C(F)(F)F)NC(=O)NC1c1coc2ccc(C)cc2c1=O` (stereo not given), the Activity with HeLa was determined as 33.5%; in the assay on SK-N-SH it was 45.5%; in the assay with A549 it was 37.4%. The MIC in assay [1] is 7.86 µM (≈ 3.12 µg/mL).
The matching figures for `CCOC(=O)C1=C(C)NC(=S)NC1c1coc2ccccc2c1=O` (stereo not given): 49.3%, 32.7%, 26.3% and 72.7 µM (≈ 25 µg/mL).
On to `COCCOC(=O)C1=C(C)NC(=O)NC1c1coc2cc3occc3cc2c1=O` (stereo not given), for which the Activity turned out to be 37.6% in the assay on HeLa, 34.7% in the assay on SK-N-SH and 34.7% with A549. Also, in assay [1], the MIC was determined as 31.4 µM (≈ 12.5 µg/mL).
On to `CCOC(=O)C1=C(C)NC(=O)NC1c1coc2ccc(C)cc2c1=O` (stereo not given), for which the Activity with HeLa was 16.6%; in the assay with SK-N-SH it was 1.7%; in the assay with A549 it was 24.8%. In assay [1], this compound showed a minimal inhibitory concentration (MIC) of 36.5 µM (≈ 12.5 µg/mL).
The corresponding values for `CCOC(=O)C1=C(C(F)(F)F)NC(=O)NC1c1coc2cc3occc3cc2c1=O` (stereo not given) are 40.9%, 6.9%, 21.8% and 7.38 µM (≈ 3.12 µg/mL).
The matching figures for `CCOC(=O)C1=C(C)NC(=O)NC1c1coc2ccccc2c1=O` (stereo not given): 16.6%, 19%, 18.1% and 76.2 µM (≈ 25 µg/mL).
The corresponding values for `CCOC(=O)C1=C(C)NC(=O)NC1c1coc2ccc(Br)cc2c1=O` (stereo not given) are 32.8%, 31.1%, 51.4% and 30.8 µM (≈ 12.5 µg/mL).
With `NNC(=O)c1ccncc1` [ISONIAZID], in assay [1], the minimal inhibitory concentration (MIC) was 0.66 µM (≈ 0.0905 µg/mL).
As for `CCOC(=O)C1=C(c2ccccc2)NC(=S)NC1c1coc2ccc(C)cc2c1=O` (stereo not given), the Activity in the assay with HeLa was 31.5%; in the assay with SK-N-SH, 12.1%; in the assay on A549 it was 27.2%. Further, in assay [1], it took 14.9 µM (≈ 6.26 µg/mL) to inhibit growth (MIC).
`CCOC(=O)C1=C(C)NC(=O)NC1c1coc2c([N+](=O)[O-])cccc2c1=O` (stereo not given): the Activity in the assay on HeLa came to 60.6%; with SK-N-SH, 56%; in the assay on A549 it was 47.6%. In assay [1], this compound returned an MIC of 4.18 µM (≈ 1.56 µg/mL).
The compound `CC[C@@H](CO)NCCN[C@@H](CC)CO` [ETHAMBUTOL] gave a minimal inhibitory concentration (MIC) in assay [1] of 7.63 µM (≈ 1.56 µg/mL).
With `CCOC(=O)C1=C(C)NC(=S)NC1c1coc2ccc(-c3ccccc3)cc2c1=O` (stereo not given), the Activity was determined as 40.9% in the assay on HeLa, 25.4% in the assay on SK-N-SH and 37.4% in the assay on A549. The compound also showed an MIC in assay [1] of 59.5 µM (≈ 25 µg/mL).
Regarding `CCOC(=O)C1=C(C)NC(=O)NC1c1coc2ccc(-c3ccccc3)cc2c1=O` (stereo not given), the figures for the Activity in the assay on HeLa and in the assay with A549 were 45.3% and 7.2%, respectively. Moreover, in the assay on SK-N-SH, the outcome was inactive. In assay [1], the MIC came to 30.7 µM (≈ 12.4 µg/mL).
The matching figures for `CCOC(=O)C1=C(c2ccccc2)NC(=O)NC1c1coc2cc3occc3cc2c1=O` (stereo not given): 59.1%, 13.1%, “inactive” and 14.5 µM (≈ 6.25 µg/mL).
The corresponding values for `CCOC(=O)C1=C(C(F)(F)F)NC(=O)NC1c1coc2cccc(C)c2c1=O` (stereo not given) are 61.3%, 22%, 35.9% and 3.91 µM (≈ 1.55 µg/mL).
The matching figures for `CCOC(=O)C1=C(C(F)(F)F)NC(=O)NC1c1coc2ccccc2c1=O` (stereo not given): 29.2%, “inactive”, 23.4% and 7.9 µM (≈ 3.02 µg/mL).
Turning to `COc1cccc2c1C(=O)c1c(O)c3c(c(O)c1C2=O)C[C@@](O)(C(=O)CO)C[C@@H]3O[C@H]1C[C@H](N)[C@H](O)[C@H](C)O1` [DOXORUBICIN], the Activity in the assay with HeLa is recorded as 86.5%; in the assay with SK-N-SH, 31.8%; in the assay on A549, 55%.
Take `CCOC(=O)C1=C(C)NC(=O)NC1c1coc2c(ccc3occc32)c1=O` (stereo not given): the Activity with HeLa was determined as 42.4%; in the assay with A549, 33.8%. In addition, the outcome in the assay on SK-N-SH was inactive. Moreover, the MIC in assay [1] was found to be 34 µM (≈ 12.5 µg/mL).
The corresponding values for `CCOC(=O)C1=C(C(F)(F)F)NC(=O)NC1c1coc2ccc(-c3ccccc3)cc2c1=O` (stereo not given) are 28.6%, 31.3%, 10.7% and 3.39 µM (≈ 1.55 µg/mL).

These data come from ChEMBL document CHEMBL1770089, “Synthesis, structure-activity relationship of novel substituted 4H-chromen-1,2,3,4-tetrahydropyrimidine-5-carboxylates as potential anti-mycobacterial and anticancer agents” (2011).
